The results in this text go back to ChEMBL document CHEMBL5096215, “Design, synthesis and antitumor efficacy evaluation of a series of novel β-elemene-based macrocycles” (Bioorg Med Chem, 2022).

Molecules are shown by their SMILES. Where only a bound is given, the exact number is not on record here.

A short description of test [1]: Antiproliferative activity against human U-87 MG cells assessed as inhibition of cell growth at 50 uM measured after 48 hrs by CCK8 assay relative to control. In kind it is functional, U-87MG ATCC. A general note: Formazan colour is commonly taken as a measure of viable cells.
For test [2], the system named is PC-3. Nature of the test: Antiproliferative activity against human PC-3 cells assessed as inhibition of cell growth measured after 48 hrs by CCK8 assay relative to control. The test is classed as functional, cell-based. The note with it: PC-3, 48 h.
The subject of test [3] is U-251. Kind of test: Antiproliferative activity against human U-251 cells assessed as inhibition of cell growth at 50 uM measured after 48 hrs by CCK8 assay relative to control. The test is classed as functional.
The subject of test [4] is A549. Nature of the test: Antiproliferative activity against human A549 cells assessed as inhibition of cell growth measured after 48 hrs by CCK8 assay relative to control. The test is classed as functional, cell-based. The settings on record: A549, 48 h.
The test system of test [5] is HCT-116. Nature of the test: Antiproliferative activity against human HCT-116 cells assessed as inhibition of cell growth at 50 uM measured after 48 hrs by CCK8 assay relative to control. The test is classed as functional.
Test [6] can be described thus: Antiproliferative activity against human U-87 MG cells assessed as inhibition of cell growth measured after 48 hrs by CCK8 assay relative to control. In kind it is functional, cell-based, U-87MG ATCC.
Test [7] concerns U-251. Kind of test: Antiproliferative activity against human U-251 cells assessed as inhibition of cell growth measured after 48 hrs by CCK8 assay relative to control. The test is classed as functional, cell-based. The note with it: U-251, 48 h.
In test [8] the test system is A549. Kind of test: Antiproliferative activity against human A549 cells assessed as inhibition of cell growth at 50 uM measured after 48 hrs by CCK8 assay relative to control. In kind it is functional.
For test [9], the system named is PC-3. Kind of test: Antiproliferative activity against human PC-3 cells assessed as inhibition of cell growth at 50 uM measured after 48 hrs by CCK8 assay relative to control. In kind it is functional.
For test [10], the system named is HCT-116. Kind of test: Antiproliferative activity against human HCT-116 cells assessed as inhibition of cell growth measured after 48 hrs by CCK8 assay relative to control. The settings on record: HCT-116, 48 h. In kind it is functional, cell-based.
The subject of test [11] is HCT-116. Kind of test: Potency index, […] for antiproliferative activity against human HCT-116 cells assessed as inhibition of cell growth measured after 48 hrs by CCK8 assay. The test is classed as functional.
Test [12] is described as follows: Potency index, […] for antiproliferative activity against human U-87 MG cells assessed as inhibition of cell growth measured after 48 hrs by CCK8 assay. The test is classed as functional, U-87MG ATCC.
The test system of test [13] is PC-3. Nature of the test: Potency index, […] for antiproliferative activity against human PC-3 cells assessed as inhibition of cell growth measured after 48 hrs by CCK8 assay. The test is classed as functional.
The test system of test [14] is A549. Nature of the test: Potency index, […] for antiproliferative activity against human A549 cells assessed as inhibition of cell growth measured after 48 hrs by CCK8 assay. In kind it is functional.
For test [15], the system named is U-251. Kind of test: Potency index, […] for antiproliferative activity against human U-251 cells assessed as inhibition of cell growth measured after 48 hrs by CCK8 assay. The test is classed as functional.

`C=C[C@]1(C)CC[C@@H](C(=C)C)C[C@H]1C(=C)C`: the inhibition at 50 µM (in test [1]; with U-251 [3]; with HCT-116 [5]; with A549 [8]; in the test on PC-3 [9]) was below 20% throughout. Further, the IC50 is 276 µM in the test on PC-3 [2]; 227 µM in the test on A549 [4]; 266 µM in [6]; 181 µM with U-251 [7]; 782 µM in the test with HCT-116 [10].

Regarding `C=C[C@]1(C)CC[C@@H]2C[C@H]1C(=C)CN(C)CCN(C)Cc1cccc(c1)CN(C)CCN(C)CC2=C`, the inhibition at 50 µM is below 20% in [1]; 98.5% in the test with U-251 [3]; 94.8% in the test with HCT-116 [5]; 60.7% in the test on A549 [8]; 68.8% in the test with PC-3 [9]. For the same compound, the half-maximal inhibitory concentration (IC50) in the test with PC-3 [2] was 38.6 µM; in the test on A549 [4] it was 44.8 µM; with U-251 [7] it was 23 µM; in the test on HCT-116 [10] it was 17.6 µM. In addition, the “Ratio IC50” value in the test on HCT-116 [11] was 20; in [12], 5; with PC-3 [13], 5; in the test with A549 [14], 5; with U-251 [15], 5.

By inhibition is commonly meant how much of the control response was suppressed. For orientation: IC50 means the midpoint of a concentration-inhibition curve.
